Experimental data: EP4778516A1, “CALCIFICATION ENHANCER FOR OSTEOBLAST MC3T3-E1 CELL” (Watanabe Oyster Laboratory Co., Ltd., priority 2023, dated 2025)
Read-outs that look alike come from different tables or passages of the source.

Key:
MC3T3-E1 cells = assay: Effects of conditioned medium of LPS-stimulated RAW264.7 cells on MC3T3-E1 cells; type: cell-based, mouse
Description: A conditioned medium was obtained by culturing RAW264.7 cells.
RAW264.7 cells (1×10^5 cells/ml per well in a 24-well plate) were cultured for 3 days after reaching subconfluence in DMEM containing 10% FBS and 1% P/S in the presence or absence of LPS (concentration in the medium: 100 ng/ml). After the cells were cultured, the medium (conditioned medium) was collected.
To evaluate the effects of the conditioned medium on proliferation of MC3T3-E1 cells, MC3T3-E1 cells were cultured for 3 days in a-MEM containing 10% FBS and 1% P/S. The cells were then cultured for 3 days using either the conditioned medium (1 ml, control) cultured without LPS or the conditioned medium (0.25 or 0.50 ml per well, adjusted to 1 ml with normal medium) cultured with LPS in the presence or absence of DHMBA (1 or 10 mM).
Further, to examine the effects on cell death of MC3T3-E1 cells, the cells (1×10^5 cells/ml per well) were cultured for 3 days in a-MEM containing 10% FBS and 1% P/S. After reaching subconfluence, the medium was replaced. The cells were then further cultured for 48 hours in either the normal medium, the conditioned medium (1 ml) cultured without LPS, or the conditioned medium (0.25 or 0.50 ml per well, adjusted to 1 ml with normal medium) with either a reagent vehicle (1% ethanol as final concentration) or DHMBA (1 or 10 mM). After culture, the cells were detached from each culture well, and cell numbers were counted in the same manner as described above.
Further, the effects of Bay 11-7082, which is an NF-kB signaling inhibitor, on proliferation or cell death of MC3T3-E1 cells were investigated. First, to examine the effects of Bay 11-7082 on proliferation of MC3T3-E1 cells, the cells (1×10^5 cells/1 ml per well in a 24-well plate) were cultured for 3 days until reaching subconfluence in the presence of 10% FBS, 1% P/S, and either a reagent vehicle (1% ethanol as final concentration) or Bay 11-7082 (1, 10, 50, 100, or 1000 nM). Next, MC3T3-E1 cells were cultured for 3 days in the presence of the conditioned medium (0.5 ml per well, adjusted to a total of 1 ml with normal medium) with or without Bay 11-7082 (1 or 10 nM) in the presence or absence of DHMBA (10 mM).
In another experiment, to evaluate the effects of Bay 11-7082 on cell death of MC3T3-E1, the cells (1×10^5 cells/1 ml per well in a 24-well plate) were cultured in a-MEM containing 10% FBS and 1% P/S. After culturing for 3 days until reaching subconfluence, the medium was replaced with a-MEM (1 ml) containing either the normal medium or the conditioned medium prepared by adding the normal medium to 0.5 ml per well of the conditioned medium, adjusted to a total volume of 1 ml. The cells were then further cultured for 48 hours in the presence of Bay 11-7082 (1 or 10 nM), or Bay 11-7082 (10 nM) in combination with DHMBA (10 mM). After culture, the cells were detached from each culture well, and cell numbers were counted as described above.

NF-kB p65 = assay: Western blotting of cell lysates; type: cell-based, mouse; settings: 3 days
Description: MC3T3-E1 cells (1×10^6 cells in 10 ml medium in a 100-mm dish) were cultured for 3 days in a-MEM containing 10% FBS and 1% P/S in the presence of a reagent vehicle (1% ethanol as final concentration), DHMBA (10 mM), TNF-a (10 ng/ml medium), or DHMBA (10 mM) in combination with TNF-a (10 ng/ml). After culture, the dishes were washed three times with cold PBS (10 ml), and adherent cells were removed from the dishes by scraping in Cell Lysis Buffer (Cell Signaling Technology, Inc., Danvers, MA, USA). Protein samples obtained from the cell lysates were loaded ([…] per lane) and separated by SDS-polyacrylamide gel electrophoresis (12% SDS-PAGE), as previously described. After electrophoresis, the membranes were incubated overnight at 4°C with primary antibodies (each diluted 1:1,000) against target proteins NF-kB p65 (catalog no. 3034, rabbit) and b-actin (catalog no. 3700, mouse). […] Protein bands were then detected using a chemiluminescent substrate (catalog no. 34577, Thermo Fisher Scientific Inc., Rockford, IL, USA) on X-ray film. A total of four films obtained from four independent experiments using separate membranes were scanned using an Epson Perfection 1660 Photo scanner, and band intensities were quantified using ImageJ2 software (National Institutes of Health, Bethesda, MD, USA).

[1] = cited from earlier work; for peroxyl radical scavenging activity relative to Trolox: greater than Trolox

With COc1c(O)cc(CO)cc1O [DHMBA, 3,5-dihydroxy-4-methoxybenzyl alcohol] as the compound, how does the “suppressive effect of DHMBA on conditioned-medium-induced suppression of proliferation, in combination with Bay 11-7082” value (MC3T3-E1 cells; DHMBA in the presence of Bay 11-7082) read?
Its value is “not further enhanced”.

And the “enhancement of death of MC3T3-E1 cells by the conditioned medium” value (MC3T3-E1 cells; conditioned medium 0.5 ml, DHMBA 1 or 10 mM, 48 hours, Fig. 6B)?
The value was “suppressed”.

What about the “inhibition of proliferation of MC3T3-E1 cells by the conditioned medium” value (MC3T3-E1 cells; conditioned medium with LPS stimulation, DHMBA 1 or 10 mM, 3 days, Fig. 6A) of the same compound?
Its value is “prevented”.

And the “expression level of NF-kB p65 in MC3T3-E1 cells” value (NF-kB p65; DHMBA 10 mM, without TNF-a, Figs. 8A and 8B)?
Its value is “reduced”.

What about the “TNF-a-induced increase of the level of NF-kB p65” value (NF-kB p65; TNF-a 10 ng/ml plus DHMBA 10 mM, Fig. 8A and 8B) of the same compound?
Its value is “suppressed”.

What about the “reaction with HOO(•)” value ([1]; compared with other known antioxidants such as resveratrol and ascorbic acid) of the same compound?
The value was “more rapidly”.

And the “peroxyl radical scavenging activity relative to Trolox” value ([1]; in aqueous media)?
Its value is “four orders of magnitude”.

And the “peroxyl radical scavenging activity relative to Trolox” value ([1]; in lipid media)?
The value was “approximately 15 fold”.
